Assay type in all cases: in vivo
For experiment [1], the system named is db/db mice. As to the kind of experiment: Blood glucose and insulin in mouse model of type II diabetes (Example 4). Conditions: single administration 0.2 g/kg per day by gavage, two weeks. The source says: Effects of a Limonoid Compound, Metformin or a Combination Thereof on Blood Glucose and Insulin in a Mouse Model of Type II Diabetes
In the present embodiment, the limonoid compound selected nomilin, deacetylnomilin, nomilin acid, deactylnomilin 17-β-D-glucopyranoside, and a nomilin single administration group, deacetylnomilin single administration group, nomilin acid single administered group, deactylnomilin 17-β-D-glucopyranoside single administration group, and combination thereof with metformin administration groups were set, respectively.
Conditions for experimental feeding: as type II diabetes model mice, 6-week-old SPF-grade db/db mice were purchased from the Nanjing Model Biology Institute, and subjected to experimental feeding after 7 days of preliminary feeding. It should be noted that the conditions for raising the mice were as follows: the temperature was 23±1° C., the humidity was 55±10%, the lights were turned on between 7 am and 7 pm (the lights were turned off at other time), and the mice were allowed to access to water and feed freely. The experimental feed was mouse growth-stable feed (GB M2118), and the daily feeding and management of the animals were under the responsibility of the animal security department, which provided the animals with sufficient padding and fresh drinking water daily.
Experimental grouping: male db/db mice (20±2 g) were selected, 18 male mice in each group were tested, and drinking bottles were sterilized weekly. The experimental groups included the normal control group (db/m, n=18), the model group (db/db, n=18), the nomilin group (db/db, n=18), the deacetylnomilin group (db/db, n=18), the nomilin acid group (db/db, n=18), the deactylnomilin 17-β-D-glucopyranoside group (db/db, n=18), the metformin group (db/db, n=18), the nomilin/metformin combination group (db/db, n=18), the deacetylnomilin/metformin combination group (db/db, n=18), the nomilin acid/metformin combination group (db/db, n=18), the deactylnomilin 17-β-D-glucopyranoside/combination group (db/db, n=18).
Gavage doses: nomilin at a dose of 0.2 g/kg was gavaged per day for the nomilin group, deacetylnomilin at a dose of 0.2 g/kg was gavaged per day for the deacetylnomilin group, nomilin acid at a dose of 0.2 g/kg was gavaged per day for the nomilin acid group, deacetylnomilin […] at a dose of 0.2 g/kg was gavaged per day for the deactylnomilin glucopyranoside group, metformin at a dose of 0.2 g/kg was gavaged per day for the metformin group, nomilin at a dose of 0.1 g/kg and metformin at a dose of 0.1 g/kg were simultaneously gavaged per day for the nomilin/metformin combination group, nomilin acid at a dose of 0.1 g/kg and metformin at a dose of 0.1 g/kg were simultaneously gavaged per day for the nomilin acid/metformin combination group, deacetylnomilin at a dose of 0.1 g/kg and metformin at a dose of 0.1 g/kg were simultaneously gavaged per day for the deacetylnomilin/metformin combination group, deactylnomilin 17-β-D-glucopyranoside at a dose of 0.1 g/kg and metformin at a dose of 0.1 g/kg were simultaneously gavaged per day for the deactylnomilin 17-β-D-glucopyranoside/metformin combination group, the gavage volume was 10 mL/kg, and the normal group and the model group were administrated with 10 mL/kg of distilled water. Two weeks later, the blood glucose values were measured by tail trimming method (Johnson's blood glucose meter) 1 h after the last administration, and serum insulin levels were measured with blood collected from orbital cavity by enzyme-linked immunosorbent assay (Elisa), and the average of each group was obtained. SPSS 16.0 software was used for statistical analysis. The data were expressed as mean and standard deviation. The data before and after were analyzed by t-test, and P<0.05 was considered statistically significant.

Experiment [2] concerns db/db mice. In words: Blood glucose and leptin in mouse model of type II diabetes (Example 2). As to conditions: single administration 0.04 g/kg per day by gavage, two weeks. The source says: Effects of a Limonoid Compound, Metformin or a Combination Thereof on Blood Glucose and Leptin in a Mouse Model of Type II Diabetes In the present example, db/db mice (line name BKS.Cg-Dock7^m+/+ Lepr^db/Nju) were used to perform hypoglycemic efficacy evaluation test of animals (blood glucose level and leptin). […] Conditions for experimental feeding: as type II diabetes model mice, 6-week-old SPF-grade db/db mice were purchased from the Nanjing Model Biology Institute, and subjected to experimental feeding after 7 days of preliminary feeding. […] The experimental feed was mouse growth-stable feed (GB […]), and the daily feeding and management of the animals were under the responsibility of the animal security department, which provided the animals with sufficient padding and fresh drinking water daily. Experimental grouping: male db/db mice (20±2 g) were selected, and 18 male mice in each group were tested. […] Gavage doses: obacunone at a dose of 0.04 g/kg was gavaged per day for the obacunone group, isoobacunoic acid at a dose of 0.04 g/kg was gavaged per day for the isoobacunoic acid group, obacunone 17-β-D-glucopynoside at a dose of 0.04 g/kg was gavaged per day for the obacunone 17-β-D-glucopynoside group, metformin at a dose of 0.04 g/kg was gavaged per day for the metformin group, obacunone at a dose of 0.02 g/kg and metformin at a dose of 0.02 g/kg were simultaneously gavaged per day for the obacunone/metformin combination group, isoobacunoic acid at a dose of 0.02 g/kg and metformin at a dose of 0.02 g/kg were simultaneously gavaged per day for the isoobacunoic acid/metformin combination group, obacunone 17-β-D-glucopynoside at a dose of 0.02 g/kg and metformin at a dose of 0.02 g/kg were simultaneously gavaged per day for the obacunone 17-β-D-glucopynoside/metformin combination group, the gavage volume was 10 mL/kg, and the normal group and the model group were administrated with 10 mL/kg of distilled water. […] The data were expressed as mean and standard deviation. The data before and after were analyzed by t-test, and P<0.05 was considered statistically significant.

The subject of experiment [3] is STZ mice. In words: Blood glucose in mouse model of type II diabetes with pancreatic islet damage and obesity (Example 5). As to conditions: high-fat diet + STZ ICR mice; single administration 0.5 g/kg per day by gavage, three weeks. The procedure:
It should be noted that the conditions for raising the mice were as follows: the temperature was 23±1° C., the humidity was 55±10%, the lights were turned on between 7 am and 7 pm (the lights were turned off at other time), and the mice were allowed to access to water and feed freely. The experimental feed was mouse growth-stable feed (GB M2118), and the daily feeding and management of the animals were under the responsibility of the animal security department, which provided the animals with sufficient padding and fresh drinking water daily.
SPSS 16.0 software was used for statistical analysis.

In the case of `CN(C)C(=N)NC(=N)N` [Metformin, N,N-dimethylimidodicarbonimidic diamide, reference compound], the Insulin in experiment [1] (serum, Elisa) is 8.19 ± 2.10 pg/mL. For the same molecule, the Blood glucose value in experiment [1] (1 h after last administration) came out at 12.2 ± 3.6 mmol/L; in experiment [2] (1 h after last administration), 15.5 ± 3.6 mmol/L; in experiment [3], 17.9 ± 3.6 mmol/L. The Leptin in experiment [2] (serum, Elisa) worked out at 34.49 ± 3.38 pg/mL.

Source of the values: patent US11679097B2, “Combination product containing limonoid compound and biguanide compound” (ZHEJIANG YANGSHENGTANG INSTITUTE OF NATURAL MEDICATION CO., …, priority 2017, dated 2023).
